Laboratory results published in patent US10080751B2, “Systems and methods for treating bacterial infection” (priority 2016, dated 2018).
≈ marks a conversion by molar mass, not a printed value. Like-named read-outs stand apart in the source and are kept apart here.

Columns and labels:
[1] = Single-dose ECG study in healthy human volunteers (1.6 and 3.2 mg/kg over 30 minutes); type: in vivo; details: 3.2 mg/kg infused over 30 minutes
Description: Based on this, a single-dose ECG-study was conducted in healthy human volunteers, where 1.6 mg/kg and 3.2 mg/kg iclaprim was infused over 30 minutes. […] Maximal increases coincided with Cmax levels and were rapidly reversible. Weight-based dosing with 1.6 mg/kg was thus assessed as acceptable for clinical purposes, whereas weight-based dosing at 3.2 mg/kg was associated with relevant QTc prolongations (>60 msec) and nonspecific T-wave alterations, and was not used for further clinical studies.

[2] = tested on: methicillin-resistant Staphylococcus aureus (MRSA) isolates; assay: Broth microdilution MIC against MRSA nonsusceptible to daptomycin, linezolid or vancomycin; type: cell-based
Description: Antibacterial susceptibility testing was conducted on a range of MRSA strains and isolates with varying susceptibilities to several recognized antistaphylococcal antibiotics. Susceptibility testing was performed by broth microdilution in accordance with the Clinical and Laboratory and Standards Institute (CLSI) guidelines. Minimum inhibitory concentrations (MICs) were based on CLSI criteria.

[3] = tested on: E. coli; assay: MIC with/without bovine pulmonary surfactant, E. coli; type: cell-based, Escherichia coli; details: E. coli ATCC 25922
Description: (§1) Clinical isolates were identified by the submitting laboratories and confirmed by JMI Laboratories using standard bacteriologic algorithms and methodologies, including Matrix-Assisted Laser Desorption Ionization-Time Of Flight Mass Spectrometry (MALDI-TOF MS). When necessary, MALDI-TOF MS was performed using the Bruker Daltonics MALDI Biotyper (Billerica, Mass., USA), following manufacturer's instructions. Isolates selected were bacterial species commonly associated with pneumonia. […] 2.2 Susceptibility testing
(§2) Antibacterial susceptibility testing was measured by JMI Labs (North Liberty, Iowa, USA). […] These clinical isolates were collected from US (n=4), Mexico (n=2), and Italy (n=1). Susceptibility testing was performed by broth microdilution in accordance with the Clinical and Laboratory and Standards Institute (CLSI) guidelines M07-A10 (2015) and the standard operating procedures at JMI laboratories. Minimum inhibitory concentrations (MICs) were based on CLSI criteria (2015). There are no published breakpoints for iclaprim. E. coli, K. pneumoniae, M. catarrhalis, E. faecalis, and S. aureus were tested in cation-adjusted Mueller-Hinton broth (CA-MHB). S. pneumoniae were tested in CA-MHB supplemented with 2.5-5% lysed horse blood, and H. influenza were tested in Haemophilus test medium. Quality control and interpretation of results were performed in accordance with CLSI M100-S26 (2016) methods. QC ranges for iclaprim were those approved by CLSI and published in M100-S26 (2016). Iclaprim and comparator antibiotic MIC results were within the CLSI published ranges against E. coli ATCC 25922, E. faecalis ATCC 29212, E. faecalis ATCC 33186, H. influenzae ATCC 49247, K. pneumoniae ATCC 700603 (ESBL phenotype), S. aureus ATCC 29213, and S. pneumoniae ATCC 49619. Isolates were tested with MIC panels (ThermoFisher Scientific, Cleveland, Ohio, USA) of comparator antibiotics (daptomycin and levofloxacin).
(§3) Because bovine pulmonary surfactant can introduce cloudiness to the MIC testing media, antimicrobial growth inhibition was also evaluated using the colorimetric metabolic indicator resazurin (Camlab Ltd., Cambridge, UK). […] S. pneumoniae panels were omitted from resazurin analysis because the color change was obscured by the lysed horse blood present in the test medium. Growth inhibition was then evaluated as a visible color change from blue (no growth) to pink (robust growth) and recorded as a MICRZ value.
(§4) The MICs of iclaprim, levofloxacin, and daptomycin were determined against Gram-positive and Gram-negative isolates.
A new vial of bovine pulmonary surfactant (BPS; Survanta®; Abbott Laboratories, Columbus, Ohio) was utilized for each independent experiment. […] MICs of daptomycin were determined in CAMHB with the Ca^2+ content adjusted to 50 mg/L.

[4] = tested on: E. faecalis; assay: MIC with/without bovine pulmonary surfactant, E. faecalis; type: cell-based, Enterococcus faecalis; details: for MICRZ, Resazurin: +BPS: 2.5% v/v BPS; for MICRZ, Resazurin: no BPS
Description: as §1, §2, §3, §4
(§5) A new vial of bovine pulmonary surfactant (BPS; Survanta®; Abbott Laboratories, Columbus, Ohio) was utilized for each independent experiment. Each vial was mixed thoroughly and a 100 μL aliquot was spread on an agar plate, which was incubated overnight to confirm sterility. […] The concentration of surfactant was expressed in terms of percent volume of Survanta® suspension, which consisted of phospholipid (25 mg/mL) and surfactant proteins (<1 mg/mL) in 0.9% sodium chloride solution (Goerke, 1998). MICs of daptomycin were determined in CAMHB with the Ca^2+ content adjusted to 50 mg/L.

[5] = tested on: S. aureus; assay: MIC with/without bovine pulmonary surfactant, S. aureus; type: cell-based, Staphylococcus aureus; details: for MICRZ, Resazurin: +BPS: 2.5% v/v BPS; for MICRZ, Resazurin: no BPS
Description: as §1, §2, §3, §4, §5

[6] = tested on: S. pneumoniae; assay: MIC with/without bovine pulmonary surfactant, S. pneumoniae; type: cell-based; details: Streptococcus pneumoniae
Description: as §1, §2, §3, §4, §5

[7] = tested on: common Gram-positive and Gram-negative respiratory bacteria; assay: Pulmonary surfactant interaction, overall effect on MIC and MICRZ; type: cell-based; details: 2.5% (v/v) BPS, all tested strains or isolates
Description: Antibacterial susceptibility testing was measured by JMI Labs (North Liberty, Iowa, USA). […] These clinical isolates were collected from US (n=4), Mexico (n=2), and Italy (n=1). Susceptibility testing was performed by broth microdilution in accordance with the Clinical and Laboratory and Standards Institute (CLSI) guidelines M07-A10 (2015) and the standard operating procedures at JMI laboratories. Minimum inhibitory concentrations (MICs) were based on CLSI criteria (2015). There are no published breakpoints for iclaprim. E. coli, K. pneumoniae, M. catarrhalis, E. faecalis, and S. aureus were tested in cation-adjusted Mueller-Hinton broth (CA-MHB). […]
Because bovine pulmonary surfactant can introduce cloudiness to the MIC testing media, antimicrobial growth inhibition was also evaluated using the colorimetric metabolic indicator resazurin (Camlab Ltd., Cambridge, UK). […] Growth inhibition was then evaluated as a visible color change from blue (no growth) to pink (robust growth) and recorded as a MICRZ value.
as §4
A new vial of bovine pulmonary surfactant (BPS; Survanta®; Abbott Laboratories, Columbus, Ohio) was utilized for each independent experiment. […] MICs of daptomycin were determined in CAMHB with the Ca^2+ content adjusted to 50 mg/L. […]

[8] = tested on: S. aureus strain AH1252; assay: Neutropenic rat lung infection model; type: in vivo; details: iclaprim 80 mg/kg
Description: S. aureus strain AH1252, a thymidine knockout of the MRSA wild type AW6 strain, was utilized for this study. The bacterial strain was diluted in a 2% alginate buffer, which was added dropwise in a ratio of 1:5 into […] to form alginate beads. The alginate beads reduce the efficacy of bacterial clearance similar to that seen in the cystic fibrosis population. A 5.25×10^4 bacterial inoculum was administered to groups of 9 rats, intratracheally, with prepared alginate bacteria suspensions, under isoflurane anesthesia. […] Twelve hours after the last treatment, rats were euthanized and lungs collected for CFU determination.

[9] = tested on: isolated rabbit Purkinje fibers
[10] = S. aureus Clinical Isolate 825189
[11] = SC/BID 3 days, vancomycin 50 mg/kg

For `COc1cc(Cc2cnc(N)nc2N)c2c(c1OC)OC(C1CC1)C=C2` (racemic) [Iclaprim], the QTc prolongations [1] was > 60 ms, the MIC ([2]; Staphylococcus aureus, MRSA, read-out: MIC to the majority of MRSA isolates) was ≤ 1 µg/mL and the MIC50 ([2]; Staphylococcus aureus, 59 MRSA isolates) was 0.25 µg/mL (≈ 0.705 µM). For the same compound, the “MRSA isolates with iclaprim MIC ≤1 μg/ml” value ([2]; isolates nonsusceptible to linezolid (25 of 25)) was 100%, the “isolates with reduced susceptibility, MICs >8 μg/mL” value ([2]; nine of 59 MRSA isolates) was 15.2% and the “MICRZ, Resazurin: +BPS” value ([3]; 2.5% v/v BPS) was 1 µg/mL. The “MICRZ, Resazurin” value ([3]; no BPS) was 1 µg/mL, the “MICRZ, Resazurin: +BPS” value ([4]; E. faecalis ATCC 29212) was “<=0.015 μg/mL” and the “MICRZ, Resazurin” value ([4]; E. faecalis ATCC 29212) was “<=0.015 μg/mL”. The “MICRZ, Resazurin: +BPS” value ([4]; E. faecalis ATCC 33186) was “<=0.015 μg/mL”, the “MICRZ, Resazurin” value ([4]; E. faecalis ATCC 33186) was 0.03 µg/mL and the “MICRZ, Resazurin: +BPS” value ([5]; S. aureus ATCC 29213) was 0.06 µg/mL. For the same compound, the “MICRZ, Resazurin” value ([5]; S. aureus ATCC 29213) was 0.06 µg/mL, the “MICRZ, Resazurin: +BPS” value [5, 10] was 0.12 µg/mL and the “MICRZ, Resazurin” value [5, 10] was 0.06 µg/mL. For the same compound, the MIC ([6]; ATCC49619, S. pneumoniae ATCC 49619, 2.5% v/v BPS, read-out: MIC, CLSI: +BPS) was 0.06 µg/mL (≈ 0.169 µM), the MIC ([6]; ATCC49619, S. pneumoniae ATCC 49619, no BPS, read-out: MIC, CLSI) was 0.06 µg/mL (≈ 0.169 µM) and the MIC ([6]; S. pneumoniae Clinical Isolate 818757, 2.5% v/v BPS, read-out: MIC, CLSI: +BPS) was 0.06 µg/mL (≈ 0.169 µM). It also gave an MIC ([6]; S. pneumoniae Clinical Isolate 818757, no BPS, read-out: MIC, CLSI) of 0.06 µg/mL (≈ 0.169 µM), an MIC ([6]; S. pneumoniae Clinical Isolate 825175, 2.5% v/v BPS, read-out: MIC, CLSI: +BPS) of 0.12 µg/mL (≈ 0.339 µM) and an MIC ([6]; S. pneumoniae Clinical Isolate 825175, no BPS, read-out: MIC, CLSI) of 0.12 µg/mL (≈ 0.339 µM). For the same compound, the “effect of BPS on the MIC and MICRZ values” [7] was “minimal or no effect”, the “72 hour lungs (CFU/gram of lung) log10CFU/Lung” value [8, 11] was 3.34 log10CFU/Lung and the “Change in CFUs from 2 hr.” value [8, 11] was 0.22 log 10 CFU. The “Survival >60 hrs” value ([8]; SC/BID 3 days, vancomycin 50 mg/kg, 9 rats) was 9/9, the “survival compared to the infection controls” value ([8]; vancomycin 50 mg/kg SC/BID) was “increased survival” and the “Change in CFUs from 72 hr.” value ([8]; vs 72 hr infection controls, vancomycin 50 mg/kg SC/BID) was −5.34 log 10 CFU. The “iclaprim concentrations at which action potential duration was increased” value [9] was “above 1 μM”.
